Measured values taken from patent US8003595B2, “Amino acid sequences facilitating penetration of a substance of interest into cells and/or cell nuclei” (Cellectis, priority 2000, dated 2011).
Where two headings read alike, the source gives them in different places. Marks after values point to notes of the source that are not given here. Where no end group is shown, it is not given here.

Columns and labels:
HT29 cells = assay: cells; format: cell-based; settings: Homo sapiens, HT-29, Table 26, read-out: % inhibition of the growth of HT29 cells
Excerpt: N-phthalimidoglutarimide (thalidomide) is a molecule that has a great variety of properties, such as a teratogenic effect, reduction of the production of TNF-α by the monocytes and suppression of angiogenesis. It has been shown that the teratogenic activity depends on the glutarimide residue, while the antiangiogenic effect depends on the phthaloyl group. We therefore prepared peptide SEQ ID NO: 46 derived from peptide SEQ ID NO: 26 (HBP3)2 and added glycyl phthaloyl in N-terminal. The technique used to test the activity of phthaloyl-HBP3 is the same as the one previously described for aspirin. The results of the inhibition of the growth (%) of HT29 cells shown in Table 27 are calculated as a percentage of the mean optical density in the wells of cells containing dilutions of the samples being tested and the mean optical density of the wells of cells that received only medium.

CHO cells = assay: In vitro transfection with luciferase plasmid using peptides; format: cell-based, Chinese hamster; settings: for luciferase expression RLU: 3 μg of plasmid PCMV-LUC and 3.3 nmoles of peptide
Protocol: The plasmid used is PCMV-LUC (6.4 kb) carrying the luciferase gene under the control of the promoter of the human cytomegalovirus.
The plasmid-peptide complexes are prepared by adding 3 μg of plasmid to 50 μl of NaCl, 0.15 M and 3.3 nmoles of SEQ ID NO: 22 and 23 for 15 minutes. The complexes are prepared in triplicate.
CHO cells are cultivated in the complete medium MEM Alpha containing 6% fetal calf serum and sown with 5×10^4 cells per well on a 24-well plate the evening before the experiment. The wells are then emptied of the medium, and the plasmid-peptide complex is added to them (3 μg of plasmid and 3.3 nmoles of peptide in 0.5 ml of complete medium for 5 hours at 37° C.). The medium is then replaced with the complete medium, and the culture is continued for 18-20 hours. The cells are then washed three times with PBS, then lysed with 100 μl of lysis buffer (Promega) containing 1% Triton X-100 and 2 mM DTT.
Then a 15 μl sample of the lysate is taken to measure the luciferase with the Promega luciferin kit and 15 other μl to calculate the quantity of proteins in the lysate using the Bradford Test. The relative luciferase units (RLU) are reported in mg of proteins.

3T3 cells = assay: as above; format: cell-based, mouse
Protocol: Technique: The plasmid pCMVLUC (carrying the gene for luciferase) provided by Qiagen is used according to their instructions. 3T3 cells are sown the night before in 24-well plates (8×10^4 cells/well) in the complete culture medium.
The peptides and the plasmid are complexed in a ratio of 1.6 nmoles/μg in 50 μl of NaCl 0.15M for 20 minutes at laboratory temperature. The cells are then washed, and the peptide-plasmid complex added to the cells in 0.5 ml of complete medium. After 5 hours of incubation at 37° C., the reaction medium is eliminated, and 1 ml of complete medium is added to the cells. After 24 hours of culture, the cells are then washed 3 times with PBS and lysed with 100 μl of lysis buffer (Promega) containing 1% Triton X-100 and 2 mM DTT for 15 minutes. The luciferase test is done on the cell lysate after centrifugation. The quantity of protein in the lysate is measured using the Bradford Test (Bio-Rad) and calculated according to a curve established with bovine gamma globulins. The luciferase activity is estimated on 15 μl of lysate plus 100 μl of reagent of luciferase containing luciferin (Promega). The relative luciferase units (RLU) are measured in a luminometer (Berthold Systems) and reported in mg of protein.

cells = assay: Penetration of biotinylated peptides inside cells (microscopy, S-PO coloration); format: cell-based; settings: biotinylated peptides 50 to 6 μg/ml, 1-18 hours, revealed with S-PO
H1299 cells [1] = assay: Internalization of biotinylated peptide/S-PO complexes; format: cell-based, human; settings: peptide: S-PO complexes of 4:1, peptide concentration of 1 μg
Protocol: A biotinylated/S-PO peptide or biotinylated/A-PO complex (A-PO for avidin-peroxidase) is prepared extemporaneously in two ways:
1) either in a peptide: S-PO or A-PO molar ratio of 4:1 (for example, 1.4 μg of peptide with a molecular weight of 3500 to 10 μg of S-PO; the weight of S-PO used varies depending on the peptides since their molecular weights are different).
2) or in a peptide: S-PO or A-PO molar ratio of 25:1 (for example 1.7 μg of peptide with a molecular weight of 3500 to 1 μg of S-PO).
The complexes are prepared by incubating the biotinylated peptide with S-PO or A-PO in PBS in a volume of 5 to 10 μl for 15 minutes at laboratory temperature. They are then diluted in 1 ml of complete culture medium, filtered on a 0.2 micron membrane and incubated with the cells for 4 hours. The cells are then washed three times with PBS.
To study the penetration of the complexes under a microscope, the cells are fixed as before for 15 minutes in ethanol at −20° C., they are washed with PBS, and the activity of the internalized peroxidase is shown by diaminobenzidine in the presence of H2O2. To measure the quantity of peptide/S-PO or A-PO complexes internalized, the cells are trypsinized, transferred into microtubes and counted. They are washed twice by centrifugation, then the residue is suspended in 200 μl of lysis buffer (Tris buffer, 0.1 M, pH8, 0.5% Nonidet). After 15 minutes, the peroxidase contained in the lysis buffer is dosed onto 96-well plates with ortho-dianisidine and H2O2 by comparison with a standard curve for S-PO. The reading is taken at 450 nm. The quantity contained in the different samples is expressed in picograms (pg) per 10^4 cells.
Table 7 below reports the results of evaluating the influence of SEQ ID NO: 1 on the penetration of peptides coupled to SEQ ID NO: 1 into H1299 cells, where
Concentration a: 25 peptides to one molecule of S-PO (1 μg),
Concentration b: 4 peptides to one molecule of S-PO (10 μg).

[2] = system: Enterococcus faecalis (ATCC 29212); assay: microbe, parasite or virus in culture; format: cell-based; settings: ATCC 29212
Protocol: (§1) The gram-positive bacterial strains are: Enterococcus faecalis (ATCC 29212), and Staphylococcus aureus (ATCC 25923) and the gram-negative strains are: Escherichia coli (ATCC 25922), Pseudomonas aeruginosa (ATCC 27853) and Salmonella typhimurim (clinical isolate), Salmonella typhiTy2 (WHO). The bacteria are cultured with shaking all night at 37° C., then recultured at a dilution of 1:50 in some fresh Luria-Bertani (LB) medium for 2 hours. The bacterial concentration is adjusted to […], and 50 μl is distributed in 96-well plates with an equal volume of peptides diluted half and half (256-0.5 μg/ml) in LB medium. […] To determine the minimum bactericide concentration, 10 μl from each well is spread on gelose plates in LB medium.
(§2) The results are expressed as the peptide concentration in MBC (μM).

[3] = system: Escherichia coli (ATCC 25922); assay: microbe, parasite or virus in culture; format: cell-based; settings: ATCC 25922
Protocol: as §1, §2

[4] = system: Pseudomonas aeruginosa (ATCC 27853); assay: microbe, parasite or virus in culture; format: cell-based; settings: ATCC 27853
Protocol: as §1, §2

[5] = system: Staphylococcus aureus (ATCC 25923); assay: microbe, parasite or virus in culture; format: cell-based; settings: ATCC 25923
Protocol: as §1, §2

[6] = system: Salmonella typhimurim (clinical isolate); assay: Antibacterial activity of cationic peptides (MBC); format: cell-based; settings: S. typhimurium
Protocol: as §1, §2

[7] = system: gram-positive and gram-negative bacterial strains; assay: Antibacterial activity of cationic peptides, summary over strains; format: cell-based; settings: summary of Table 29
Protocol: as §1
However, when peptide HPB13 (SEQ ID NO: 38) is coupled with peptide SEQ ID NO: 24, it enhances its activity by a factor of 50 to 100 (peptide SEQ ID NO: 45). […] None these peptides are active on gram-positive bacteria.

[8] = ELISA fixation of biotinylated peptides on sensitized plates; format: binding; settings: read-out: avidity (Kd), quantity of peptides necessary to obtain 50% fixation, Heparin; Table 5
Protocol: The capacity of peptides SEQ ID NO: 1 to 21 to attach themselves to DNA and heparin is evaluated on ELISA plates sensitized with DNA or heparin. Dilutions of biotinylated peptides are deposited on the plates and their fixation is shown using streptavidin conjugated with peroxidase. […] The avidity of each of the peptides for DNA or heparin is evaluated by the quantity (×10^−6 M) of peptides necessary to obtain 50% fixation.

[9] = as above; format: binding; settings: read-out: avidity (Kd), quantity of peptides necessary to obtain 50% fixation, Chondroitin A; Table 5
[10] = as above; format: binding; settings: read-out: avidity (Kd), quantity of peptides necessary to obtain 50% fixation, Chondroitin B; Table 5
[11] = as above; format: binding; settings: read-out: avidity (Kd), quantity of peptides necessary to obtain 50% fixation, Chondroitin C; Table 5
H1299 cells [12] = assay: Internalization of covalent peptide-peroxidase conjugates; format: cell-based, human; settings: Table 9; H1299; 0.2 μg/ml conjugate, 2 hours
Protocol: (§3) To evaluate more directly the penetration of the peptides, avoiding the avidin-peroxidase bias, some of the peptides in sequences SEQ ID NO: 25 to 48 were conjugated covalently with cysteine in the C-terminal position of the peptide to peroxidase. The peptides were coupled with peroxidase in the following way:
(§4) One mg of peroxidase activated with maleimide (Sigma) in 100 μl of sodium phosphate buffer, NaCl 0.15 M, EDTA 5 mM, had 1 mg of peptide added to it. After 2 hours at laboratory temperature, β-mercaptoethanol is added to a final concentration of 1.5 mM for 15 minutes. The uncoupled peptide is eliminated by centrifugation on ultrafiltration membranes (cut-off threshold=30,000 Daltons, Sartorius), followed by three washings in sodium phosphate buffer 0.1 M, pH 7.4 containing 0.15 M NaCl.
The H1299 cells are incubated for 2 hours with the conjugates at increasing concentrations of peptide-peroxidase in the culture medium, then washed with PBS. The cells are lysed and the quantity of peptide internalized is evaluated by the dosage of peroxidase in the lysate of the cells with reference to a curve established with peptide-peroxidase.
The quantity of peptide internalized (pg/10^3 cells), depending on the concentrations of conjugates in the culture medium, is shown in Table 8 below.
(§5) It appears that the higher the concentration of peptide-peroxidase conjugate in the culture medium, the more the quantity internalized increases. To compare the penetration of the conjugates by cell type, the cells from different lines were incubated with 0.2 μg/ml of peptide-peroxidase conjugate for 2 hours, and the quantity of peroxidase dosed in the lysates. Table 9 and Table 9B below give the results expressed in pg/10^3 cells. The quantity of each peptide internalized in the different lines generally varies only from single to double.

3T3 = assay: as above; format: cell-based, mouse; settings: Table 9, 0.2 μg/ml conjugate, 2 hours
Protocol: as §3, §4, §5

HeLa = assay: as above; format: cell-based, human; settings: Table 9, 0.2 μg/ml conjugate, 2 hours
Protocol: as §3, §4, §5

[13] = system: Salmonella typhiTy2 (WHO); assay: microbe, parasite or virus in culture; format: cell-based, S. typhi-Ty2; settings: S. typhi-Ty2
Protocol: as §1, §2

Molecule `CC(=O)Oc1ccccc1C(=O)O` [Natural aspirin, aspirin, reference compound] has an inhibition at 100 µg/mL (HT29 cells; 100 μg/ml) of 0%, an inhibition at 200 µg/mL (HT29 cells; 200 μg/ml) of 3% and an inhibition at 500 µg/mL (HT29 cells; 500 μg/ml) of 6%. The inhibition at 1000 µg/mL (HT29 cells; 1000 μg/ml) was 48%.
For “SEQ ID NO: 22: Peptide containing 12 lysines (K) and SEQ ID NO: 6 (KKKKKKKKKKKKTYYSDTVKGRFTRQKYNKRA; Mus musculis x Rattus norvegicus)”, the “luciferase expression RLU” value (CHO cells) was 1.9 10^6/mg of proteins.
In the case of “SEQ ID NO: 23: Peptide containing 12 lysines (K) and SEQ ID NO: 5 (KKKKKKKKKKKKVKRGLKLRQKYNKRAMDY; Mus musculis x Rattus norvegicus)”, the “luciferase expression RLU” value (CHO cells) is reported as 11.5 10^6/mg of proteins and the “increase of luciferase expression compared with SEQ ID NO: 22” value (CHO cells; CHO cells) is reported as 6 times.
For “SEQ ID NO: 42: SEQ ID NO: 39 (HBP10) plus 13 N-terminal lysines (KKKKKKKKKKKKKSRRARRSPRHLGSG; listed as Homo sapiens)”, the “RLU value relative to peptide SEQ ID NO: 41” value (3T3 cells; 3T3 cells) was 5.5 times and the “luciferase expression RLU” value (3T3 cells; peptide and plasmid pCMVLUC complexed at 1.6 nmoles/μg) was 5 × 10^6/mg of protein.
In the case of VKRGLKLVKRGLKL [SEQ ID NO: 2], the intracellular cytochemical coloration (cells) is reported as “Faint coloration”, the S-PO internalized (H1299 cells [1]) is reported as 84 pg/10^4 cells and the MBC [2] is reported as over 160 µM. For the same molecule, the MBC [3] was >160* μM, the MBC [4] was over 160 µM and the MBC [5] was over 160 µM. For the same molecule, the MBC [6] was over 160 µM and the “bactericide / anti-microbial activity” value [7] was “not active”.
In the case of VKRGLKLVKRGLKLVKRGLKL [SEQ ID NO: 3], the Kd [8] is reported as 0.041 µM, the Kd [9] is reported as 0.037 µM and the Kd [10] is reported as 0.041 µM. For the same molecule, the Kd [11] was 0.035 µM, the S-PO internalized (H1299 cells [1]) was 642 pg/10^4 cells and the “Internalization of Peptide-peroxidase” value (H1299 cells [12]) was 17.7 pg/10^3 cells. The “Internalization of Peptide-peroxidase” value (3T3) was 24.6 pg/10^3 cells, the “Internalization of Peptide-peroxidase” value (HeLa) was 11.2 pg/10^3 cells and the MBC [2] was over 106 µM. The MBC ([3]; read-out: MBC) was 13.25 µM, the MBC [4] was 26.5 µM and the MBC [5] was over 106 µM. The MBC [13] was 1.65 µM and the “bactericide / anti-microbial activity” value [7] was “has bactericide activity”.
